From patent US20240240224A1, “FLUORESCENT D-TYPE AMINO ACID METABOLISM MARKER-BASED METHOD FOR DETECTING ANTIBACTERIAL DRUG SENSITIVITY TEST” (priority 2020, published 2024)
In brackets after ≈: the same amount, converted by molar mass.

Tests used:
S. aureus Sa22 [1] = assay: FaAST (FDAA metabolic labeling method); format: cell-based, Staphylococcus aureus; details: unit assumed
Protocol: (§1) Take the colony to be tested that has been cultured overnight on the plate and fully mix it in normal saline to make a uniform bacterial solution. Dilute it into Cation-Adjusted Mueller Hinton Broth (CAMHB) culture medium to make a bacterial solution with OD600=0.05. • 2. Add 45 μl antibiotic solutions of different concentrations to 96-well plates (see Table 1 for antibiotic concentration gradient settings). • 3. Add 50 μl of the bacterial solution prepared in step 1 to the 96-well plate and mix well. • 4. Add 5 μl of 10 mM Cy5-DAA probe (final concentration 0.15 mM, see FIG. 1 for its structure) into each well, mix well, and cultivate in dark for 2 hours. • 5. Add 200 μl After PBS solution is diluted, the fluorescence intensity of each sample is detected by flow cytometry. The flow detection results are shown in FIG. 4-5, showing the curve of the change of antibiotic concentration gradient and fluorescence intensity. The MIC (minimum inhibitory concentration) can be obtained by referring to this curve.
(§2) Bacteria with antibiotic resistance are shown in bold in the following table.

S. aureus Sa23 [2] = assay: FaAST (FDAA metabolic labeling method); format: cell-based, Staphylococcus aureus; details: unit assumed
Protocol: as §1, §2

S. aureus ATCC29213 [3] = assay: FaAST (FDAA metabolic labeling method); format: cell-based, Staphylococcus aureus; details: unit assumed
Protocol: as §1, §2

E. faecium Ef28 [4] = assay: FaAST (FDAA metabolic labeling method); format: cell-based, Enterococcus faecium; details: unit assumed
Protocol: as §1, with “The flow detection results are shown in FIG. 4-5, showing the curve of the change of antibiotic concentration gradient and fluorescence intensity.” left out

E. faecium Ef26 [5] = assay: BMD susceptibility test; format: cell-based, Enterococcus faecium; details: unit assumed
S. aureus Sa23 [6] = assay: BMD susceptibility test; format: cell-based, Staphylococcus aureus; details: unit assumed
E. faecalis ATCC29212 [7] = assay: FaAST (FDAA metabolic labeling method); format: cell-based, Enterococcus faecalis; details: unit assumed
Protocol: as §1, §2

S. aureus ATCC29213 [8] = details: cited from earlier work
E. faecium Ef28 [9] = assay: BMD susceptibility test; format: cell-based, Enterococcus faecium; details: unit assumed
E. faecalis ATCC29212 [10] = assay: BMD susceptibility test; format: cell-based, Enterococcus faecalis; details: unit assumed
E. faecium Ef26 [11] = assay: FaAST (FDAA metabolic labeling method); format: cell-based, Enterococcus faecium; details: unit assumed
Protocol: as §1, §2

E. faecalis ATCC29212 [12] = details: cited from earlier work
S. aureus Sa22 [13] = assay: BMD susceptibility test; format: cell-based, Staphylococcus aureus; details: unit assumed
S. aureus ATCC29213 [14] = assay: BMD susceptibility test; format: cell-based, Staphylococcus aureus; details: unit assumed
Pa ATCC 27853 [15] = assay: FaAST (FDAA metabolic labeling); format: cell-based, Pseudomonas aeruginosa; details: unit assumed
Protocol: (§3) The specific experimental steps are as follows: • 1. Take the colony to be tested that has been cultured overnight on the plate and fully mix it in normal saline to make a uniform bacterial solution. Dilute it into CAMHB medium to make a bacterial solution with OD600=0.05. • 2. Add 45 μl antibiotic solutions to be tested of different concentrations to 96-well plates (see Table 3 for antibiotic concentration gradient settings). • 3. Add 50 μl of bacterial solution prepared in Step 1 to the 96-well plate and mix well. • 4.5 μl of 10 mM Cy5-DAA probe was added to each well (final concentration was 0.15 mM, and its structure was shown in FIG. 1). After mixing, the probe was incubated for 2 hours in the dark. • 5. After dilution with 200 μl PBS solution, the fluorescence intensity of each sample was detected by flow cytometry. The flow detection results are shown in the attached FIG. 4-5, showing the curve of antibiotic concentration gradient and fluorescence intensity, and the MIC (minimum inhibitory concentration) is obtained by referring to this curve.
(§4) Antibiotic resistant strains are shown in bold in the table below.

P. aeruginosa Pa2 [16] = assay: FaAST (FDAA metabolic labeling); format: cell-based, Pseudomonas aeruginosa; details: unit assumed
Protocol: as §3, §4

P. aeruginosa Pa3 [17] = assay: FaAST (FDAA metabolic labeling); format: cell-based, Pseudomonas aeruginosa; details: unit assumed
Protocol: as §3, §4

E. coli Ec11 [18] = assay: BMD susceptibility test; format: cell-based, Escherichia coli; details: unit assumed
Pa ATCC 27853 [19] = assay: BMD susceptibility test; format: cell-based, Pseudomonas aeruginosa; details: unit assumed
Ec ATCC 25922 [20] = assay: BMD susceptibility test; format: cell-based, Escherichia coli; details: unit assumed
P. aeruginosa Pa3 [21] = assay: BMD susceptibility test; format: cell-based, Pseudomonas aeruginosa; details: unit assumed
E. coli Ec11 [22] = assay: FaAST (FDAA metabolic labeling); format: cell-based, Escherichia coli; details: unit assumed
Protocol: as §3, §4

Ec ATCC 25922 [23] = assay: FaAST (FDAA metabolic labeling); format: cell-based, Escherichia coli; details: unit assumed
Protocol: as §3, §4

E.coli 1146 [24] = assay: Vitek 2 drug sensitivity test; format: cell-based, Escherichia coli; on Sensibility: key: S: Drug sensitive; R: Drug resistance
E. coli Ec13 [25] = assay: BMD susceptibility test; format: cell-based, Escherichia coli; details: unit assumed
A. baumannii Ab19 [26] = assay: BMD susceptibility test; format: cell-based, Acinetobacter baumannii; details: unit assumed
Ec ATCC 25922 [27] = details: cited from earlier work
K. pneumoniae Kp6 [28] = assay: BMD susceptibility test; format: cell-based, Klebsiella pneumoniae; details: unit assumed
K. pneumoniae Kp6 [29] = assay: FaAST (FDAA metabolic labeling); format: cell-based, Klebsiella pneumoniae; details: unit assumed
Protocol: as §3, with “cytometry.” for “cytometry. The flow detection results are shown in the attached FIG. 4-5, showing the curve of antibiotic concentration gradient and fluorescence intensity, and the MIC (minimum inhibitory concentration) is obtained by referring to this curve.”

E.coli 1113 [30] = assay: FDAA metabolic labeling susceptibility test (Cy5-DAA probe, flow cytometry); format: cell-based, Escherichia coli; details: Escherichia coli; E.coli 1113; Cy5-DAA probe, 2 hours; read-out: MIC, FDAA
Protocol: as §3

E.coli 1146 [31] = assay: as above; format: cell-based, Escherichia coli; details: Escherichia coli; E.coli 1146; Cy5-DAA probe, 2 hours; read-out: MIC, FDAA
Protocol: as §3

A. baumannii Ab19 [32] = assay: FaAST (FDAA metabolic labeling); format: cell-based, Acinetobacter baumannii; details: unit assumed
Protocol: as §3, §4

P. aeruginosa Pa2 [33] = assay: BMD susceptibility test; format: cell-based, Pseudomonas aeruginosa; details: unit assumed
Pa ATCC 27853 [34] = details: cited from earlier work
A. baumannii Ab16 [35] = assay: BMD susceptibility test; format: cell-based, Acinetobacter baumannii; details: unit assumed
E. coli Ec13 [36] = assay: FaAST (FDAA metabolic labeling); format: cell-based, Escherichia coli; details: unit assumed
Protocol: as §3, with “cytometry.” for “cytometry. The flow detection results are shown in the attached FIG. 4-5, showing the curve of antibiotic concentration gradient and fluorescence intensity, and the MIC (minimum inhibitory concentration) is obtained by referring to this curve.”

A. baumannii Ab16 [37] = assay: FaAST (FDAA metabolic labeling); format: cell-based, Acinetobacter baumannii; details: unit assumed
Protocol: as §3, with “cytometry.” for “cytometry. The flow detection results are shown in the attached FIG. 4-5, showing the curve of antibiotic concentration gradient and fluorescence intensity, and the MIC (minimum inhibitory concentration) is obtained by referring to this curve.”

E.coli 1113 [38] = assay: Vitek 2 drug sensitivity test; format: cell-based, Escherichia coli; on Sensibility: key: S: Drug sensitive; R: Drug resistance
S. aureus ST59 [39] = assay: FDAA metabolic labeling susceptibility test (Cy5-DAA probe, flow cytometry); format: cell-based; details: Staphylococcus aureus, ST59, 2 h, read-out: MIC, FDAA
Protocol: as §1

S. aureus ST398 [40] = assay: as above; format: cell-based; details: Staphylococcus aureus, ST398, 2 h, read-out: MIC, FDAA
Protocol: as §1

S. aureus ST5 [41] = assay: as above; format: cell-based; details: Staphylococcus aureus, ST5, 2 h, read-out: MIC, FDAA
Protocol: as §1

S. aureus ST59 [42] = assay: Vitek 2 drug sensitivity test; format: cell-based, Staphylococcus aureus; on Sensibility: key: S: Drug sensitive; R: Drug resistance
S. aureus ST398 [43] = assay: Vitek 2 drug sensitivity test; format: cell-based, Staphylococcus aureus; on Sensibility: key: S: Drug sensitive; R: Drug resistance
S. aureus ST5 [44] = assay: Vitek 2 drug sensitivity test; format: cell-based, Staphylococcus aureus; on Sensibility: key: S: Drug sensitive; R: Drug resistance

teicoplanin
FaAST (MIC) (S. aureus Sa22 [1]): 1 µg/mL
FaAST (MIC) (S. aureus Sa23 [2]): 1 µg/mL
FaAST (MIC) (S. aureus ATCC29213 [3]): 0.25 µg/mL
FaAST (MIC) (E. faecium Ef28 [4]): 32 µg/mL
BMD (MIC) (E. faecium Ef26 [5]): 0.5 µg/mL
BMD (MIC) (S. aureus Sa23 [6]): 0.5 µg/mL
FaAST (MIC) (E. faecalis ATCC29212 [7]): 0.5 µg/mL
CLSI QC range (S. aureus ATCC29213 [8]): 0.25-1^
BMD (MIC) (E. faecium Ef28 [9]): 16 µg/mL
BMD (MIC) (E. faecalis ATCC29212 [10]): ≤ 0.25 µg/mL
FaAST (MIC) (E. faecium Ef26 [11]): 0.25 µg/mL
CLSI QC range (E. faecalis ATCC29212 [12]): 0.25-1
BMD (MIC) (S. aureus Sa22 [13]): 0.5 µg/mL
BMD (MIC) (S. aureus ATCC29213 [14]): ≤ 0.25 µg/mL

CO/N=C(\C(=O)N[C@@H]1C(=O)N2C(C(=O)[O-])=C(C[N+]3(C)CCCC3)CS[C@H]12)c1csc(N)n1 [Cefepime, cefepime]
FaAST (MIC) (Pa ATCC 27853 [15]): 2 µg/mL
FaAST (MIC) (P. aeruginosa Pa2 [16]): 0.5 µg/mL
FaAST (MIC) (P. aeruginosa Pa3 [17]): 4 µg/mL
BMD (MIC) (E. coli Ec11 [18]): ≤ 0.25 µg/mL
BMD (MIC) (Pa ATCC 27853 [19]): 2 µg/mL
BMD (MIC) (Ec ATCC 25922 [20]): ≤ 0.25 µg/mL
BMD (MIC) (P. aeruginosa Pa3 [21]): 8 µg/mL
FaAST (MIC) (E. coli Ec11 [22]): 0.5 µg/mL
FaAST (MIC) (Ec ATCC 25922 [23]): ≤ 0.25 µg/mL
Sensibility (E.coli 1146 [24]): S
MIC (E.coli 1146 [24]; Escherichia coli): ≤ 1 µg/mL
BMD (MIC) (E. coli Ec13 [25]): > 64 µg/mL
BMD (MIC) (A. baumannii Ab19 [26]): 1 µg/mL
CLSI QC range (Ec ATCC 25922 [27]): 0.016-0.12
BMD (MIC) (K. pneumoniae Kp6 [28]): ≤ 0.25 µg/mL
FaAST (MIC) (K. pneumoniae Kp6 [29]): 0.5 µg/mL
MIC (E.coli 1113 [30]): ≥ 128 µg/mL
MIC (E.coli 1146 [31]): 4 µg/mL (≈ 8.32 µM)
FaAST (MIC) (A. baumannii Ab19 [32]): 1 µg/mL
BMD (MIC) (P. aeruginosa Pa2 [33]): 1 µg/mL
CLSI QC range (Pa ATCC 27853 [34]): 0.5-4
BMD (MIC) (A. baumannii Ab16 [35]): 128 µg/mL
FaAST (MIC) (E. coli Ec13 [36]): > 128 µg/mL
FaAST (MIC) (A. baumannii Ab16 [37]): 64 µg/mL
MIC, Vitek 2 (E.coli 1113 [38]): > 64 µg/mL
Sensibility (E.coli 1113 [38]): R

CN[C@H](CC(C)C)C(=O)N[C@H]1C(=O)N[C@@H](CC(N)=O)C(=O)N[C@H]2C(=O)N[C@H]3C(=O)N[C@H](C(=O)N[C@H](C(=O)O)c4cc(O)cc(O)c4-c4cc3ccc4O)[C@H](O)c3ccc(c(Cl)c3)Oc3cc2cc(c3O[C@@H]2O[C@H](CO)[C@@H](O)[C@H](O)[C@H]2O[C@H]2C[C@](C)(N)[C@H](O)[C@H](C)O2)Oc2ccc(cc2Cl)[C@H]1O [Vancomycin, vancomycin]
FaAST (MIC) (S. aureus Sa22 [1]): 2 µg/mL
FaAST (MIC) (S. aureus Sa23 [2]): 2 µg/mL
FaAST (MIC) (S. aureus ATCC29213 [3]): 1 µg/mL
MIC (S. aureus ST59 [39]): 2 µg/mL (≈ 1.38 µM)
MIC (S. aureus ST398 [40]): 2 µg/mL (≈ 1.38 µM)
MIC (S. aureus ST5 [41]): 4 µg/mL (≈ 2.76 µM)
FaAST (MIC) (E. faecium Ef28 [4]): 32 µg/mL
Sensibility (S. aureus ST59 [42]): S
MIC (S. aureus ST59 [42]; Staphylococcus aureus): 1 µg/mL (≈ 0.69 µM)
BMD (MIC) (E. faecium Ef26 [5]): 0.5 µg/mL
BMD (MIC) (S. aureus Sa23 [6]): 1 µg/mL
Sensibility (S. aureus ST398 [43]): S
MIC (S. aureus ST398 [43]; Staphylococcus aureus): ≤ 0.5 µg/mL
FaAST (MIC) (E. faecalis ATCC29212 [7]): 2 µg/mL
CLSI QC range (S. aureus ATCC29213 [8]): 0.5-2
Sensibility (S. aureus ST5 [44]): S
MIC (S. aureus ST5 [44]; Staphylococcus aureus): 1 µg/mL (≈ 0.69 µM)
BMD (MIC) (E. faecalis ATCC29212 [10]): 2 µg/mL
FaAST (MIC) (E. faecium Ef26 [11]): 0.25 µg/mL
CLSI QC range (E. faecalis ATCC29212 [12]): 1-4
BMD (MIC) (S. aureus Sa22 [13]): 1 µg/mL
BMD (MIC) (S. aureus ATCC29213 [14]): 1 µg/mL
